Active and inactive are the calls of the source. The rule behind the calls is not given here.

Here are results for 22 compounds from ChEMBL document CHEMBL6096638, “Design, synthesis and biological evaluation of novel TMPRSS2-PROTACs with florosubstituted 4-guanidino-N-phenylbenzamide derivative ligands” (Bioorg Med Chem, 2024).

Holding throughout (format): functional
The test system of test [1] is HT-29. Nature of the test: Antiproliferative activity against human HT-29 cells assessed as inhibition of cell growth at 20 uM incubated for 48 hrs by CCK-8 assay relative to control. (Tetrazolium dyes change colour on reduction, which living cells bring about.)
The test system of test [2] is Calu-3. The experiment in a line: Antiproliferative activity against human Calu-3 cells assessed as inhibition of cell growth at 20 uM incubated for 48 hrs by CCK-8 assay relative to control.
Test [3] concerns DU-145. Nature of the test: Antiproliferative activity against human DU-145 cells assessed as inhibition of cell growth at 20 uM incubated for 48 hrs by CCK-8 assay relative to control.

With `COc1cc(C(=O)Nc2ccc(N3CCN(CC4CCN(CC(=O)N[C@H](C(=O)N5C[C@H](O)C[C@H]5C(=O)NCc5ccc(-c6scnc6C)cc5)C(C)(C)C)CC4)CC3)cc2)ccc1NC(=N)N`, the inhibition (usually the share of the control response that was lost under treatment) at 20 µM in test [1] was 42.3%. The inhibition entry in test [2] and in test [3] was “inactive” each time.
As to `Cc1ncsc1-c1ccc(CNC(=O)[C@@H]2C[C@@H](O)CN2C(=O)[C@@H](NC(=O)CN2CCC(CN3CCN(c4ccc(NC(=O)c5ccc(NC(=N)N)cc5)cc4)CC3)CC2)C(C)(C)C)cc1`, the inhibition at 20 µM came to 35.5% in test [1] and 6.8% in test [3]. Further, the inhibition result in test [2] was “inactive”.
The matching figures for `COc1cc(C(=O)Nc2ccc(N3CCN(CC(=O)N[C@H](C(=O)N4C[C@H](O)C[C@H]4C(=O)NCc4ccc(-c5scnc5C)cc4)C(C)(C)C)CC3)cc2)ccc1NC(=N)N`: 30.7%, 6.76% and “inactive”.
On the same counts, the results for `COc1cc(C(=O)Nc2ccc(CC(=O)NCCCCCCNc3cccc4c3C(=O)N(C3CCC(=O)NC3=O)C4=O)cc2)ccc1NC(=N)N` (stereo unspecified) are 21.1%, 10.5% and “inactive”.
In the case of `Cc1ncsc1-c1ccc(CNC(=O)[C@@H]2C[C@@H](O)CN2C(=O)[C@@H](NC(=O)COCCOCCOCCN2CCN(c3cccc(NC(=O)c4ccc(NC(=N)N)cc4)c3)CC2)C(C)(C)C)cc1`, the inhibition at 20 µM worked out at 23.8% in test [1] and 15.3% in test [3]. Further, in test [2], the inhibition result is “inactive”.
`N=C(N)Nc1ccc(C(=O)Nc2ccc(CC(=O)N3CCC(CN4CCN(CCCNc5ccc6c(c5)C(=O)N(C5CCC(=O)NC5=O)C6=O)CC4)CC3)cc2)cc1` (stereo unspecified): the values for the inhibition at 20 µM in test [1], in test [2] and in test [3] were 37.4%, 5.77% and 16.8%, respectively.
Take `COc1cc(C(=O)Nc2cccc(COCCOCCOCCOC(=O)N[C@H](C(=O)N3C[C@H](O)C[C@H]3C(=O)NCc3ccc(-c4scnc4C)cc3)C(C)(C)C)c2)ccc1NC(=N)N`: the inhibition at 20 µM in test [1] was determined as 30.1%; in test [3] it was 8.88%. The inhibition result in test [2] was “inactive”.
For the compound `Cc1ncsc1-c1ccc(CNC(=O)[C@@H]2C[C@@H](O)CN2C(=O)[C@@H](NC(=O)COCCOCCOCCN2CCN(c3ccc(NC(=O)c4ccc(NC(=N)N)cc4)cc3)CC2)C(C)(C)C)cc1`, in test [1], the inhibition at 20 µM was determined as 14.4%. In addition, the inhibition result in test [2] and in test [3] was “inactive” each time.
For the compound `COc1cc(C(=O)Nc2ccc(CC(=O)NCCCCCC(=O)N3CCN(c4ccc5c(c4)C(=O)N(C4CCC(=O)NC4=O)C5=O)CC3)cc2)ccc1NC(=N)N` (stereo unspecified), the inhibition at 20 µM in test [1] was 7.56%; in test [3] it was 7.04%. Further, the inhibition entry in test [2] is “inactive”.
The matching figures for `Cc1ncsc1-c1ccc(CNC(=O)[C@@H]2C[C@@H](O)CN2C(=O)[C@@H](NC(=O)CN2CCC(CN3CCN(c4ccc(NC(=O)Cc5ccc(NC(=O)c6ccc(NC(=N)N)cc6F)cc5)cc4)CC3)CC2)C(C)(C)C)cc1`: 37.3%, 5.64% and “inactive”.
On the same counts, the results for `COc1cc(C(=O)Nc2ccc(CC(=O)NCCCCCC(=O)Nc3cccc4c3CN(C3CCC(=O)NC3=O)C4=O)cc2)ccc1NC(=N)N` (stereo unspecified) are 18.9%, 9.05% and “inactive”.
The matching figures for `COc1cc(C(=O)Nc2ccc(CC(=O)NCCCCCC(=O)N[C@H](C(=O)N3C[C@H](O)C[C@H]3C(=O)NCc3ccc(-c4scnc4C)cc3)C(C)(C)C)cc2)ccc1NC(=N)N`: 20.5%, 7.56% and “inactive”.
In the case of `N=C(N)Nc1ccc(C(=O)Nc2ccc(CC(=O)NCCCCCC(=O)N3CCN(c4ccc5c(c4)C(=O)N(C4CCC(=O)NC4=O)C5=O)CC3)cc2)cc1` (stereo unspecified), the results for the inhibition at 20 µM in test [1] and in test [3] were 22.4% and 5.82%, respectively. In addition, the inhibition entry in test [2] was “inactive”.
On the same counts, the results for `Cc1ncsc1-c1ccc(CNC(=O)[C@@H]2C[C@@H](O)CN2C(=O)[C@@H](NC(=O)CN2CCN(c3ccc(NC(=O)c4ccc(NC(=N)N)cc4)cc3)CC2)C(C)(C)C)cc1` are 29.7%, 9.51% and “inactive”.
As to `COc1cc(C(=O)Nc2ccc(CC(=O)NCCCCCCC(=O)N[C@H](C(=O)N3C[C@H](O)C[C@H]3C(=O)NCc3ccc(-c4scnc4C)cc3)C(C)(C)C)cc2)ccc1NC(=N)N`, the inhibition at 20 µM came to 31.6% in test [1] and 8.05% in test [3]. For the same compound, the inhibition entry in test [2] is “inactive”.
The matching figures for `Cc1ncsc1-c1ccc(CNC(=O)[C@@H]2C[C@@H](O)CN2C(=O)[C@@H](NC(=O)OCCOCCOCCOCc2cccc(NC(=O)c3ccc(NC(=N)N)cc3)c2)C(C)(C)C)cc1`: 15.1%, 13.7% and “inactive”.
On the same counts, the results for `COc1cc(C(=O)Nc2ccc(CC(=O)Nc3ccc(CC(=O)NCCCCCCNc4cccc5c4C(=O)N(C4CCC(=O)NC4=O)C5=O)cc3)cc2)ccc1NC(=N)N` (stereo unspecified) are 32.7%, 16.5% and “inactive”.
For the compound `COc1cc(C(=O)Nc2ccc(CC(=O)NCCCCCCCC(=O)N[C@H](C(=O)N3C[C@H](O)C[C@H]3C(=O)NCc3ccc(-c4scnc4C)cc3)C(C)(C)C)cc2)ccc1NC(=N)N`, the values for the inhibition at 20 µM in test [1] and in test [3] were 31.6% and 11.2%, respectively. In test [2], the inhibition result was “inactive”.
For `Cc1ncsc1-c1ccc(CNC(=O)[C@@H]2C[C@@H](O)CN2C(=O)[C@@H](NC(=O)CN2CCN(c3ccc(NC(=O)c4ccc(NC(=N)N)cc4F)cc3)CC2)C(C)(C)C)cc1`, the inhibition at 20 µM in test [1] worked out at 34.4%; in test [2], 10.3%; in test [3] it was 14.4%.
On the same counts, the results for `COc1cc(C(=O)Nc2ccc(CC(=O)Nc3ccc(N4CCN(CC5CCN(CC(=O)N[C@H](C(=O)N6C[C@H](O)C[C@H]6C(=O)NCc6ccc(-c7scnc7C)cc6)C(C)(C)C)CC5)CC4)cc3)cc2)ccc1NC(=N)N` are 18.4%, 5.66% and 5.06%.
On to `COc1cc(C(=O)Nc2ccc(CC(=O)N3CCC(CN4CCN(c5ccc6c(c5)C(=O)N(C5CCC(=O)NC5=O)C6=O)CC4)CC3)cc2)ccc1NC(=N)N` (stereo unspecified), for which the figures for the inhibition at 20 µM in test [1] and in test [3] were 37.7% and 14.6%, respectively. In test [2], the inhibition entry was “inactive”.
The matching figures for `Cc1ncsc1-c1ccc(CNC(=O)[C@@H]2C[C@@H](O)CN2C(=O)[C@@H](NC(=O)CN2CCC(CN3CCN(c4ccc(NC(=O)Cc5ccc(NC(=O)c6ccc(NC(=N)N)cc6)cc5)cc4)CC3)CC2)C(C)(C)C)cc1`: 25.9%, 5.63% and “inactive”.
